Reference: patent US20250282827A1, “LIPIDATED POLYMYXIN ANALOGUES” (priority 2021, published 2025)
In brackets after ≈: the same amount, converted by molar mass. Like-named read-outs stand apart in the source and are kept apart here. Positions of bridges follow the written chain, without caps; N, C: chain ends. Non-standard residues stand in square brackets, D forms with d. Residues, ends and D or L forms follow the SMILES beside them. *: point of attachment. CH2CH2OBz(4-tBu) = CC(C)(C)c1ccc(C(=O)OCC*)cc1; Ethyl(2-decanoyloxy) = CCCCCCCCCC(=O)OCC*; Ethyl(2-butanoyloxy) = CCCC(=O)OCC*; Ethyl(2-propionyloxy) = CCC(=O)OCC*; Ethyl(2-OPiv) = CC(C)(C)C(=O)OCC*; Ethyl(2-OBz) = O=C(OCC*)c1ccccc1; Dab = NCC[C@H](N)C(=O)O; Butyryl = CCCC(=O)*

How the values were obtained:
[1] = system: E. coli ATCC 25922; format: cell-based, Escherichia coli
Text: (§1) All 81 compounds prepared in Examples 2 and 3 underwent screening against a panel of Gram-negative bacterium to assess their ability to inhibit bacterial growth. […] The median value is presented.

[2] = system: A. baumannii ATCC 19606; format: cell-based, Acinetobacter baumannii
Text: as §1

[3] = system: P. aeruginosa ATCC 27853; format: cell-based, Pseudomonas aeruginosa
Text: as §1

[4] = system: K. pneumoniae ATCC 33495; format: cell-based, Klebsiella pneumoniae
Text: as §1

[5] = system: K. pneumoniae ATCC 700603; format: cell-based, Klebsiella pneumoniae
Text: as §1

[6] = system: K. pneumoniae ATCC MS6671; format: cell-based, Klebsiella pneumoniae
Text: as §1

[7] = system: E. coli ATCC MS8345; format: cell-based, Escherichia coli
Text: as §1
Expansion of the polymyxin macrocycle by substituting […]) offered little advantage in antimicrobial activity but was generally well tolerated although for A. baumanni and P. aeruginosa this was detrimental.

[8] = colistin-resistant strain, median of triplicate

Row | SMILES | MIC E. coli ATCC 25922 ([1]; ATCC 25922) [µg/mL] | MIC A. baumannii ATCC 19606 ([2]; ATCC 19606) [µg/mL] | MIC P. aeruginosa ATCC 27853 ([3]; ATCC 27853) [µg/mL] | MIC K. pneumoniae ATCC 33495 ([4]; ATCC 33495) [µg/mL] | MIC K. pneumoniae ATCC 700603 ([5]; ATCC 700603) [µg/mL] | MIC K. pneumoniae ATCC MS6671 ([6]; ATCC MS6671) [µg/mL] | MIC E. coli ATCC MS8345 ([7]; ATCC MS8345) [µg/mL] | MIC E. coli ATCC 25922 ([1]; median of triplicate) [µg/mL] | MIC A. baumannii ATCC 19606 ([2]; median of triplicate) [µg/mL] | MIC P. aeruginosa ATCC 27853 ([3]; median of triplicate) [µg/mL] | MIC K. pneumoniae ATCC 33495 ([4]; median of triplicate) [µg/mL] | MIC K. pneumoniae ATCC 700603 ([5]; median of triplicate) [µg/mL] | MIC K. pneumoniae ATCC MS6671 ([6]; median of triplicate) [µg/mL] | MIC E. coli ATCC MS8345 [7, 8] [µg/mL]
1 | CC(C)C[C@@H]1NC(=O)[C@@H](Cc2ccccc2)NC(=O)[C@H](CCN)NC(=O)[C@@H](NC(=O)[C@H](CCN)NC(=O)[C@@H](NC(=O)[C@H](CCN)NC(=O)[C@@H](N)CSCCOC(=O)C(C)(C)C)[C@@H](C)O)CCNC(=O)[C@H]([C@@H](C)O)NC(=O)[C@H](CCN)NC(=O)[C@H](CCN)NC1=O [Compound 32] (H-C(Ethyl(2-OPiv))[Dab]T[Dab][Dab][Dab][dF]L[Dab][Dab]T; lactam 5-C) | 0.25 (≈ 0.193 µM) | 1 (≈ 0.772 µM) | 1 (≈ 0.772 µM) | 0.125 (≈ 0.0966 µM) | 0.5 (≈ 0.386 µM) | >32 | 16 (≈ 12.4 µM) |  |  |  |  |  |  | 
2 | CC(C)C[C@@H]1NC(=O)[C@@H](Cc2ccccc2)NC(=O)[C@H](CCN)NC(=O)[C@@H](NC(=O)[C@H](CCN)NC(=O)[C@@H](NC(=O)[C@H](CCN)NC(=O)[C@@H](N)CSCCOC(=O)c2ccc(C(C)(C)C)cc2)[C@@H](C)O)CCNC(=O)[C@H]([C@@H](C)O)NC(=O)[C@H](CCN)NC(=O)[C@H](CCN)NC1=O [Compound 34] (H-C(CH2CH2OBz(4-tBu))[Dab]T[Dab][Dab][Dab][dF]L[Dab][Dab]T; lactam 5-C) | 1 (≈ 0.73 µM) | 1 (≈ 0.73 µM) | 0.5 (≈ 0.365 µM) | 0.25 (≈ 0.182 µM) | 1 (≈ 0.73 µM) | >32 | 1 (≈ 0.73 µM) |  |  |  |  |  |  | 
3 | CCCC(=O)OCCSC[C@@H]1NC(=O)[C@@H](Cc2ccccc2)NC(=O)[C@H](CCN)NC(=O)[C@@H](NC(=O)[C@H](CCN)NC(=O)[C@@H](NC(=O)[C@H](CCN)NC(=O)[C@@H](N)CSCCOC(=O)CCC)[C@@H](C)O)CCNC(=O)[C@H]([C@@H](C)O)NC(=O)[C@H](CCN)NC(=O)[C@H](CCN)NC1=O [Compound 36] (H-C(Ethyl(2-butanoyloxy))[Dab]T[Dab][Dab][Dab][dF]C(Ethyl(2-butanoyloxy))[Dab][Dab]T; lactam 5-C) | 0.25 (≈ 0.181 µM) | 16 (≈ 11.6 µM) | 16 (≈ 11.6 µM) | 0.25 to 0.5 | 0.25 to 0.5 | >32 | 32 (≈ 23.1 µM) |  |  |  |  |  |  | 
4 | CCCCCCCCCC(=O)OCCSC[C@@H]1NC(=O)[C@@H](Cc2ccccc2)NC(=O)[C@H](CCN)NC(=O)[C@@H](NC(=O)[C@H](CCN)NC(=O)[C@@H](NC(=O)[C@H](CCN)NC(=O)[C@@H](N)CSCCOC(=O)CCCCCCCCC)[C@@H](C)O)CCNC(=O)[C@H]([C@@H](C)O)NC(=O)[C@H](CCN)NC(=O)[C@H](CCN)NC1=O [Compound 37] (H-C(Ethyl(2-decanoyloxy))[Dab]T[Dab][Dab][Dab][dF]C(Ethyl(2-decanoyloxy))[Dab][Dab]T; lactam 5-C) | 2 to 4 | 4 (≈ 2.58 µM) | 4 (≈ 2.58 µM) | 2 (≈ 1.29 µM) | 4 (≈ 2.58 µM) | >32 | 4 (≈ 2.58 µM) |  |  |  |  |  |  | 
5 | C[C@@H](O)[C@@H]1NC(=O)[C@H](CCN)NC(=O)[C@H](CCN)NC(=O)[C@H](CSCCOC(=O)c2ccc(C(C)(C)C)cc2)NC(=O)[C@@H](Cc2ccccc2)NC(=O)[C@H](CCN)NC(=O)[C@@H](NC(=O)[C@H](CCN)NC(=O)[C@@H](NC(=O)[C@H](CCN)NC(=O)[C@@H](N)CSCCOC(=O)c2ccc(C(C)(C)C)cc2)[C@@H](C)O)CCNC1=O [Compound 40] (H-C(CH2CH2OBz(4-tBu))[Dab]T[Dab][Dab][Dab][dF]C(CH2CH2OBz(4-tBu))[Dab][Dab]T; lactam 5-C) | 2 to 4 | 2 (≈ 1.28 µM) | 2 (≈ 1.28 µM) | 2 to 4 | 2 (≈ 1.28 µM) | >32 | 4 (≈ 2.56 µM) |  |  |  |  |  |  | 
6 | C[C@@H](O)[C@@H]1NC(=O)[C@H](CCN)NC(=O)[C@H](CCN)NC(=O)[C@H](CSCCOC(=O)c2ccccc2)NC(=O)[C@@H](Cc2ccccc2)NC(=O)[C@H](CCN)NC(=O)[C@@H](NC(=O)[C@H](CCN)NC(=O)[C@@H](NC(=O)[C@H](CCN)NC(=O)[C@@H](N)CSCCOC(=O)c2ccc(C(C)(C)C)cc2)[C@@H](C)O)CCNC1=O [Compound 41] (H-C(CH2CH2OBz(4-tBu))[Dab]T[Dab][Dab][Dab][dF]C(Ethyl(2-OBz))[Dab][Dab]T; lactam 5-C) |  |  |  |  |  |  |  | 1 (≈ 0.663 µM) | 2 (≈ 1.33 µM) | 2 (≈ 1.33 µM) | 2 to 4 | 1 to 2 | >32 | 4 (≈ 2.65 µM)
7 | CCC(=O)OCCSC[C@H](N)C(=O)N[C@@H](CCN)C(=O)N[C@H](C(=O)N[C@@H](CCN)C(=O)N[C@H]1CCNC(=O)[C@H]([C@@H](C)O)NC(=O)[C@H](CCN)NC(=O)[C@H](CCN)NC(=O)[C@H](CSCCOC(=O)C(C)(C)C)NC(=O)[C@@H](Cc2ccccc2)NC(=O)[C@H](CCN)NC1=O)[C@@H](C)O [Compound 43] (H-C(Ethyl(2-propionyloxy))[Dab]T[Dab][Dab][Dab][dF]C(Ethyl(2-OPiv))[Dab][Dab]T; lactam 5-C) | 2 (≈ 1.44 µM) | >32 | >32 | 16 (≈ 11.6 µM) | 2 to 4 | >32 | >32 |  |  |  |  |  |  | 
8 | CCC(=O)OCCSC[C@@H]1NC(=O)[C@@H](Cc2ccccc2)NC(=O)[C@H](CCN)NC(=O)[C@@H](NC(=O)[C@H](CCN)NC(=O)[C@@H](NC(=O)[C@H](CCN)NC(=O)[C@@H](N)CSCCOC(=O)C(C)(C)C)[C@@H](C)O)CCNC(=O)[C@H]([C@@H](C)O)NC(=O)[C@H](CCN)NC(=O)[C@H](CCN)NC1=O [Compound 45] (H-C(Ethyl(2-OPiv))[Dab]T[Dab][Dab][Dab][dF]C(Ethyl(2-propionyloxy))[Dab][Dab]T; lactam 5-C) | 0.25 (≈ 0.181 µM) | 2 to 4 | 16 (≈ 11.6 µM) | 0.25 to 0.5 | 0.25 to 0.5 | >32 | 16 to 32 |  |  |  |  |  |  | 
9 | CCCC(=O)N[C@@H](CSCCOC(=O)c1ccccc1)C(=O)N[C@@H](CCN)C(=O)N[C@H](C(=O)N[C@@H](CCN)C(=O)N[C@H]1CCNC(=O)[C@H]([C@@H](C)O)NC(=O)[C@H](CCN)NC(=O)[C@H](CCN)NC(=O)[C@H](CSCCOC(=O)c2ccccc2)NC(=O)[C@@H](Cc2ccccc2)NC(=O)[C@H](CCN)NC1=O)[C@@H](C)O [Compound 50] (Butyryl-C(Ethyl(2-OBz))[Dab]T[Dab][Dab][Dab][dF]C(Ethyl(2-OBz))[Dab][Dab]T; lactam 5-C) |  |  |  |  |  |  |  | 0.5 (≈ 0.328 µM) | 1 to 2 | 1 (≈ 0.657 µM) | 0.5 to 1 | 1 (≈ 0.657 µM) | >32 | 16 (≈ 10.5 µM)
